Results published in ChEMBL document CHEMBL1143099, “Synthesis and SAR of potent and orally bioavailable tert-butylpyrrolidine archetype derived melanocortin subtype-4 receptor modulators” (Bioorg Med Chem Lett, 2008).

Tests used:
[1] = target: T1, Melanocortin receptor 4 (Homo sapiens, UniProt P32245); test: Agonist activity at human MC4R expressed in CHO cells assessed as cAMP release; format: functional, cell-based
[2] = target: T1, Melanocortin receptor 4; test: Agonist activity at human MC4R expressed in CHO cells assessed as cAMP release relative to alpha-MSH; format: functional, cell-based
[3] = target: T1, Melanocortin receptor 4; test: Displacement of [125I]NDP-alpha-MSH from human MC4R expressed in CHO cells; format: cell-based
[4] = target: T2, Melanocortin receptor 5 (Homo sapiens, UniProt P33032); test: Agonist activity at human MC5R expressed in CHO cells assesses as cAMP release; format: functional, cell-based
T2 sequence (P33032 whole entry): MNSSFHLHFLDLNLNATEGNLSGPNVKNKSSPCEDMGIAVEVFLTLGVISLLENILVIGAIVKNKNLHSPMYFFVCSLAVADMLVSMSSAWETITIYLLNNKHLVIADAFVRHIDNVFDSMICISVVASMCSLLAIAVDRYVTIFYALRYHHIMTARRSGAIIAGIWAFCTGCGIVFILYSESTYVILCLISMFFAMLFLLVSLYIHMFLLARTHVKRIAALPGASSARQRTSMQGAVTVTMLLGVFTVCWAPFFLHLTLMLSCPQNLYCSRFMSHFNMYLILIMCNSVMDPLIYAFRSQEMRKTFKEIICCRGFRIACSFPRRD

[5] = target: T3, Melanocortin receptor 3 (Homo sapiens, UniProt P41968); test: Agonist activity at human MC3R expressed in CHO cells assessed as cAMP release; format: functional, cell-based
T3 sequence (P41968 whole entry): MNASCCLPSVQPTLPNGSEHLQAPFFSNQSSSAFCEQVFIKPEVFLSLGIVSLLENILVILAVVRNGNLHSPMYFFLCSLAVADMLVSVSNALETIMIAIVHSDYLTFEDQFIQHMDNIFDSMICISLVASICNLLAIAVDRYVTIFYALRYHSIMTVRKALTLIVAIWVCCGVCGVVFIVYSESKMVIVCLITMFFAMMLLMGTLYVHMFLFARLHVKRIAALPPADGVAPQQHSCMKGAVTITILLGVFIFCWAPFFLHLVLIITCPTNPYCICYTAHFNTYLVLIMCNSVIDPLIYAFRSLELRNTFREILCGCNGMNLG

[6] = target: T3, Melanocortin receptor 3; test: Agonist activity at human MC3R expressed in CHO cells assessed as cAMP release at 10 uM relative to alpha-MSH; format: functional, cell-based
[7] = target: T3, Melanocortin receptor 3; test: Binding affinity to human MC3R
[8] = target: T4, Melanocortin receptor 4 (Rattus norvegicus, UniProt P70596); test: Agonist activity at rat MC4R expressed in CHO cells assessed as cAMP release; format: functional, cell-based
T4 sequence (P70596 whole entry): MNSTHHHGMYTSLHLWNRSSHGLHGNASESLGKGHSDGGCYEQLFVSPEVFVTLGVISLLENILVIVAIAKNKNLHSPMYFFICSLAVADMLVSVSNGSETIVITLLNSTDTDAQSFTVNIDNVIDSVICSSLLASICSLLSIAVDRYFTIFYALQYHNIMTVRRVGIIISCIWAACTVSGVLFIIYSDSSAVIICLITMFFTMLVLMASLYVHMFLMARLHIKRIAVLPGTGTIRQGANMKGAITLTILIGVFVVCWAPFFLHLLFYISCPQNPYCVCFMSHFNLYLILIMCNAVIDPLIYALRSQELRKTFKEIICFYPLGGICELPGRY

[9] = Agonist activity at human MC1bR expressed in CHO cells assessed as cAMP release at 10 uM relative to alpha-MSH; format: functional
[10] = target: Melanocortin receptor 4 (Rattus norvegicus) (UniProt P70596); test: Agonist activity at rat MC4R expressed in CHO cells assessed as cAMP release at 10 uM relative to alpha-MSH; format: functional, cell-based
Melanocortin receptor 4 (Rattus norvegicus), sequence (P70596 whole entry): as above

[11] = target: T2, Melanocortin receptor 5; test: Agonist activity at human MC5R expressed in CHO cells assessed as cAMP release at 10 uM relative to alpha-MSH; format: functional, cell-based
[12] = target: T2, Melanocortin receptor 5; test: Binding affinity to human MC5R
[13] = Agonist activity at human MC1bR expressed in CHO cells assessed as cAMP release; format: functional, cell-based
[14] = Oral bioavailability in Sprague-Dawley rat at 4 mg/kg; format: ADME, organism-based; conditions: in vivo
[15] = Binding affinity to human MC1bR
[16] = Plasma clearance in rat at 4 mg/kg, po; format: ADME, organism-based; parameters: dose 4 mg/kg, route oral
[17] = target: T1, Melanocortin receptor 4; test: Agonist activity at human MC4R expressed in CHO cells assessed as cAMP release at 10 uM relative to alpha-MSH; format: functional, cell-based
[18] = target: T4, Melanocortin receptor 4; test: Binding affinity to rat MC4R
[19] = organism: Homo sapiens; test: Selectivity for human MC4R over human MC3R
[20] = organism: Homo sapiens; test: Selectivity for human MC4R over human MC1bR

T1 sequence (P32245 whole entry): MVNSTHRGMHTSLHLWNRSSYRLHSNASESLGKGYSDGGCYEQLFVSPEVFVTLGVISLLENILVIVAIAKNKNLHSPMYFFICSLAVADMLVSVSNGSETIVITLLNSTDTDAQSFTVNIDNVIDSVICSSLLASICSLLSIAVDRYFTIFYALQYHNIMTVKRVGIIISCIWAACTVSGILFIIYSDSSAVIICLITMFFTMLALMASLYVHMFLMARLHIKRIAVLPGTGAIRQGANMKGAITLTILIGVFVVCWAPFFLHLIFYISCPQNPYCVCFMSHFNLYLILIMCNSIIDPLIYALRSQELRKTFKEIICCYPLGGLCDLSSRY

| SMILES | EC50 [1] | %max [2] | IC50 [3] | EC50 [4] | Activity [6] | IC50 [7] | Activity [9] | Activity [11] | IC50 [12] | bioavailability [14] | IC50 [15] | CL/F [16] | further results |
| --- | --- | --- | --- | --- | --- | --- | --- | --- | --- | --- | --- | --- | --- |
| CC[C@H](NC(C)=O)c1cc(Cl)ccc1C1CCN(C(=O)[C@@H]2CN(C(C)(C)C)C[C@H]2c2ccc(F)cc2Cl)CC1 | 215 nM | 84% | 216 nM |  |  |  |  |  |  |  |  |  |  |
| CC[C@H](NC(C)=O)c1cc(Cl)ccc1C1CCN(C(=O)[C@@H]2CN(C(C)(C)C)C[C@H]2c2ccc(Cl)cc2F)CC1 | 2.8 nM | 97% | 6.2 nM | 372 nM | 92% | 1490 nM | 57% | 98% | 129 nM | 24.3% | 1340 nM | 11.4 mL/min/kg | EC50 [5]: 250 nM; EC50 [8]: 0.9 nM; Activity [10]: 106%; EC50 [13]: 905 nM |
| CC[C@H](NC(C)=O)c1cc(Cl)ccc1C1CCN(C(=O)[C@H]2CN(C(C)(C)C)C[C@@H]2c2ccc(C(F)(F)F)cc2)CC1 |  |  | 7.8 nM |  | 8% | 3780 nM | 5% | 11% | 450 nM | 28% | 16400 nM | 5.6 mL/min/kg | Activity [17]: 1%; Activity [10]: 15%; IC50 [18]: 1 nM |
| CC[C@H](NC(C)=O)c1cc(Cl)ccc1C1CCN(C(=O)[C@H]2CN(C(C)(C)C)C[C@@H]2c2ccc(Cl)cc2Cl)CC1 |  |  | 3.3 nM | 1600 nM | 5% | 4290 nM | 3% | 10% | 245 nM | 30.3% | 20000 nM | 11.4 mL/min/kg | Activity [17]: 1%; Ratio IC50 [19]: > 1000; Ratio IC50 [20]: > 6000; Activity [10]: 6%; IC50 [18]: 0.5 nM |
| CC[C@H](NC(C)=O)c1cc(Cl)ccc1C1CCN(C(=O)[C@@H]2CN(C(C)(C)C)C[C@H]2c2ccc(C(F)(F)F)cc2F)CC1 | 88.8 nM | 99% | 22.7 nM |  |  |  |  |  |  |  |  |  |  |
| CC[C@H](NC(C)=O)c1cc(Cl)ccc1C1CCN(C(=O)[C@@H]2CN(C(C)(C)C)C[C@H]2c2ccc(Br)cc2F)CC1 | 2.1 nM | 100% | 4 nM | 102 nM | 88% | 1050 nM | 57% | 88% | 65.3 nM | 24.7% | 695 nM | 7.3 mL/min/kg | EC50 [5]: 97.4 nM; EC50 [8]: 0.5 nM; Activity [10]: 94%; IC50 [18]: 1.7 nM; EC50 [13]: 274 nM |
| CC[C@H](NC(C)=O)c1cc(Cl)ccc1C1CCN(C(=O)[C@H]2CN(C(C)(C)C)C[C@@H]2c2ccc(OC)cc2F)CC1 | 245 nM | 34% | 37.2 nM |  |  |  |  |  |  |  |  |  |  |
| CC[C@H](NC(C)=O)c1cc(Cl)ccc1C1CCN(C(=O)[C@@H]2CN(C(C)(C)C)C[C@H]2c2ccc3ccccc3c2)CC1 | 120 nM | 47% | 76.2 nM | 1230 nM | 16% | 12200 nM | 10% | 35% | 675 nM | 15% | 6590 nM | 37.6 mL/min/kg |  |
| CC[C@H](NC(C)=O)c1cc(Cl)ccc1C1CCN(C(=O)[C@H]2CN(C(C)(C)C)C[C@@H]2c2ccc(Cl)cc2F)CC1 | 111 nM | 45% | 13.2 nM |  |  |  |  |  |  |  |  |  |  |
| CC[C@H](NC(C)=O)c1cc(Cl)ccc1C1CCN(C(=O)[C@@H]2CN(C(C)(C)C)C[C@H]2c2ccc(C(F)(F)F)cc2)CC1 | 67.2 nM | 90% | 28.1 nM |  |  |  |  |  |  |  |  |  |  |
| CC[C@H](NC(C)=O)c1cc(Cl)ccc1C1CCN(C(=O)[C@H]2CN(C(C)(C)C)C[C@@H]2c2ccc3ccccc3c2)CC1 | 1920 nM | 57% | 528 nM |  |  |  |  |  |  |  |  |  |  |
| CC[C@H](NC(C)=O)c1cc(Cl)ccc1C1CCN(C(=O)[C@@H]2CN(C(C)(C)C)C[C@H]2c2ccc(Cl)cc2Cl)CC1 | 156 nM | 48% | 17.9 nM |  |  |  |  |  |  |  |  |  |  |
| CC[C@H](NC(C)=O)c1cc(Cl)ccc1C1CCN(C(=O)[C@@H]2CN(C(C)(C)C)C[C@H]2c2ccc(OC)cc2F)CC1 | 4.6 nM | 100% | 11.2 nM | 167 nM | 91% | 2960 nM |  | 101% | 205 nM | 3.8% | 312 nM | 66.4 mL/min/kg | EC50 [5]: 157 nM |
| CC[C@H](NC(C)=O)c1cc(Cl)ccc1C1CCN(C(=O)[C@H]2CN(C(C)(C)C)C[C@@H]2c2ccc(Br)cc2F)CC1 | 13.4 nM | 33% | 4.1 nM | 455 nM | 38% | 2950 nM | 33% | 30% | 280 nM | 34.3% | 174000 nM | 9.12 mL/min/kg | EC50 [5]: 917 nM; EC50 [8]: 10.3 nM; Activity [10]: 44%; IC50 [18]: 1.5 nM; EC50 [13]: 1060 nM |
| CC[C@H](NC(C)=O)c1cc(Cl)ccc1C1CCN(C(=O)[C@H]2CN(C(C)(C)C)C[C@@H]2c2ccc(C(F)(F)F)cc2F)CC1 |  |  | 9.8 nM |  |  |  |  |  |  |  |  |  | Activity [17]: 5% |
| CC[C@H](NC(C)=O)c1cc(Cl)ccc1C1CCN(C(=O)[C@H]2CN(C(C)(C)C)C[C@@H]2c2ccc(F)cc2Cl)CC1 |  |  | 82.2 nM |  |  |  |  |  |  |  |  |  | Activity [17]: 10% |
| CC[C@H](NC(C)=O)c1cc(Cl)ccc1C1CCN(C(=O)[C@@H]2CN(C(C)(C)C)C[C@H]2c2ccc(F)cc2F)CC1 | 17.9 nM | 108% | 70 nM |  |  |  |  |  |  |  |  |  |  |
| CC[C@H](NC(C)=O)c1cc(Cl)ccc1C1CCN(C(=O)[C@@H]2CN(C(C)(C)C)C[C@H]2c2cc(F)c(F)cc2F)CC1 | 130 nM | 93% | 128 nM |  |  |  |  |  |  |  |  |  |  |
| CC[C@H](NC(C)=O)c1cc(Cl)ccc1C1CCN(C(=O)[C@H]2CN(C(C)(C)C)C[C@@H]2c2cc(F)c(F)cc2F)CC1 | 3700 nM | 50% | 101 nM |  |  |  |  |  |  |  |  |  |  |
| CC[C@H](NC(C)=O)c1cc(Cl)ccc1C1CCN(C(=O)[C@H]2CN(C(C)(C)C)C[C@@H]2c2ccc(F)cc2F)CC1 | 565 nM | 83% | 640 nM |  |  |  |  |  |  |  |  |  |  |
